In patent US9926293B2, “Multivalent RAS binding compounds” (THE TRUSTEES OF COLUMBIA UNIVERSITY IN THE CITY OF NEW YORK, priority 2014, dated 2018):
Where two headings read alike, the source gives them in different places.

Experiments:
Calu-1 (KRAS G12C) = assay: Cell viability assay (384-well, Alamar blue); assay type: cell-based; settings: Homo sapiens, Calu-1, 48 h
Description: (§1) All cell culture assays were incubated at 37° C., 5% CO2 in media containing Dulbecco's Modified Eagle Medium (DMEM) with 10% fetal bovine serum (FBS) and 1% penicillin-streptomycin (PS). 384-well format for EC50 determination: cells were trypsinized, counted, and seeded into 384-well plates at 1,000 cells/well. After 12-16 hours, compounds (as 50 mM stocks in DMSO) were arrayed in an 8- or 16-point dilution series in 384-well polypropylene plates. Compound solutions were transferred at a 1:5 dilution into the assay plates. After 48 hours, a 50% Alamar blue solution was added to a final concentration of 10% Alamar blue. After 6 hours of incubation, fluorescence intensity was determined using a Victor3 plate reader (Perkin Elmer) with a 535 nm excitation filter and a 590 nm emission filter. All compound measurements were performed in triplicate. For experiments performed in 6-well format, cells were trypsinized, counted, and seeded into 6-well plates at 200,000 cells per well 16 h prior to use. Media was then aspirated and replaced with 2 mL of media containing compounds at the indicated concentrations (from 10 mM stocks in DMSO). After 24 hours, cells were trypsinized and viability was determined using Trypan Blue exclusion assay.

SW480 (KRAS G12V) = assay: Cell viability assay (384-well, Alamar blue); assay type: cell-based; settings: Homo sapiens, SW480, 48 h
Description: as §1

BJeLR (HRAS G12V) = assay: Cell viability assay (384-well, Alamar blue); assay type: cell-based; settings: 48 h
Description: as §1

HPAFII (KRAS G12D) = assay: Cell viability assay (384-well, Alamar blue); assay type: cell-based; settings: Homo sapiens, HPAF-II, 48 h
Description: as §1

MDA-MB-231 (KRAS G13D) = assay: Cell viability assay (384-well, Alamar blue); assay type: cell-based; settings: Homo sapiens, MDA-MB-231, 48 h
Description: as §1

BxPC-3 (WT) = assay: Cell viability assay (384-well, Alamar blue); assay type: cell-based; settings: Homo sapiens, Table 7, 48 hours, 8-point dilution series
Description: as §1

HT1080 (NRAS Q61K) = assay: Cell viability assay (384-well, Alamar blue); assay type: cell-based; settings: Homo sapiens, HT-1080, 48 h
Description: as §1

MIA Paca-2 (KRAS G12C) = assay: Cell viability assay (384-well, Alamar blue); assay type: cell-based; settings: Homo sapiens, MIA PaCa-2, 48 h
Description: as §1

Panc-1 (KRAS G12D) = assay: Cell viability assay (384-well, Alamar blue); assay type: cell-based; settings: Homo sapiens, PANC-1, 48 h
Description: as §1

U2OS (WT) = assay: Cell viability assay (384-well, Alamar blue); assay type: cell-based; settings: Homo sapiens, Table 7, 48 hours, 8-point dilution series
Description: as §1

GppNHp-loaded KRASG12D = target: T1, GppNHp-loaded KRASG12D (Homo sapiens, UniProt P01116, G12D); assay: Microscale thermophoresis, lysine NT-647-labeled GppNHp-loaded KRAS^G12D; assay type: binding; settings: read-out: dissociation constant KD
T1 construct: made in house; host or cells: Escherichia coli BL21-Gold (DE3)
T1 sequence (P01116 1-169 isoform P01116-2 G12D): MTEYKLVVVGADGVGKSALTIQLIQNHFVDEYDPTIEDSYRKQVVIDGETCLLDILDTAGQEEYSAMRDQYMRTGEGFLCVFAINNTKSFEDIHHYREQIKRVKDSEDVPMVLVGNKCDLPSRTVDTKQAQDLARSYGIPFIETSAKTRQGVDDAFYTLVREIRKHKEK
Description: Microscale Thermophoresis
KRAS^G12D (250 μM) in 25 mM HEPES, 100 mM sodium chloride, 2 mM TCEP with 20 mM EDTA and 1 mM GppNHp was shaken at 220 rpm at 30° C. to remove the endogenous nucleotide, The solution was placed on ice for 2 minutes prior to the addition of 65 mM MgCl2. After an additional 10 minutes incubation on ice, 200 uL of a 10 uM solution of KRAS^G12D was combined with 200 uL of a 20 uM solution of NT-647-NHS-ester dye (from a 652.4 μM stock). The protein/dye mixture was rotated at 4° C. for 30 minutes, before being separated from the excess dye and buffer exchanged into 25 mM Tris, 100 mM sodium chloride, 2 mM TCEP, and 5 mM MgCl2 via a nap-5 column. The test compounds were arrayed across a 16-point dilution series consisting of 1.5% DMSO with 25 mM Tris, 100 mM NaCl, 2 mM TCEP, 5 mM MgCl2 and 0.05% tween-20. Thermophoretic movement of the fluorescently labeled protein with the inhibitors was performed using a Monolith NT.115 (Nanotemper Technologies). RALA and RHOA were purchased commercially from Abcam (RALA CN:ab102555, RHOA CN:ab101594).
In another set of experiments, the top D38-A59 two-site multivalent compounds were evaluated by a RAS pulldown using the RAS binding domain of CRAF (the top two hits are shown in FIG. 14D). This abrogation of binding between RAS and its effector protein was also evident in the RAS-RALGDS interaction (FIG. 14E). To quantify the binding of the two-site compounds to RAS, MST was performed again using lysine NT-647-labeled, GppNHp-loaded KRAS^G12D. […] The third (Y32) site was extended into (compound 34MEW95) using this scaffold.
Docking scores and dissociation constants for binding to GppNHp-bound KRAS^G12D (PDB:4DSN) were measured as set forth above for additional 2- and 3-site compounds by microscale thermophoresis.

[1] = test system: caspases 3 and 7 in HT-1080 (NRAS^Q61K) cells; assay: Caspase 3/7 activation assay; assay type: cell-based; settings: staurosporine 5 μM, 24 hours
Description: Caspase 3/7 Activation Assay
HT-1080 cells were seeded into 384-well plates at 1,000 cells/well. After 12-16 hours, compounds (as 50 mM stocks in DMSO) were arrayed in a dilution series in 384-well polypropylene plates. Compound solutions were transferred at a 1:5 dilution into the assay plates for a total volume of 40 μL. After 24 hours, 8 μL of a 1:100 solution of rhodamine 110 bis-(N-CBZ-1-aspartyl-1-glutamyl-1-valyl-aspartic acid amide) to lysis buffer (APO-1, Promega) was added and the plate was wrapped in aluminum foil and incubated at room temperature for 16 hours. Fluorescence intensity was then determined using a Victor3 plate reader (Perkin Elmer) with a 490 nm excitation filter and a 535 nm emission filter. A viability curve was performed in parallel with the same incubation time using the procedure described in the “cell viability assays” section.

[2] = Table 7, 8-point dilution series
[3] = Table 8, MDA-MB-231 (KRAS^G13O), 384-well, alamar blue
[4] = 31MEW44 5 μM, 34MEW43 10 μM, 34MEW95 5 μM

NC1(C(=O)NCCCn2cc(-c3cccc(F)c3)c3c(CN4CCN(CCOc5ccc(Cl)cc5)CC4)cccc32)CCNCC1 [Compound 34MEW43, 4-amino-N-(3-(4-((4-(2-(4-chlorophenoxy)ethyl)piperazin-1-yl)methyl)-3-(3-fluorophenyl)-1H-indol-1-yl)propyl)piperidine-4-carboxamide]
EC50 (Calu-1 (KRAS G12C); [2]): 9.42 µM
EC50 (Calu-1 (KRAS G12C); Table 8, 384-well, alamar blue): 9.4 µM
EC50 (SW480 (KRAS G12V); [2]): 7.06 µM
EC50 (SW480 (KRAS G12V); Table 8, 384-well, alamar blue): 7.1 µM
EC50 (BJeLR (HRAS G12V); [2]): 9.71 µM
EC50 (BJeLR (HRAS G12V); Table 8, 384-well, alamar blue): 9.7 µM
EC50 (HPAFII (KRAS G12D); [2]): 16.4 µM
EC50 (HPAFII (KRAS G12D); Table 8, 384-well, alamar blue): 16 µM
EC50 (MDA-MB-231 (KRAS G13D); [2]): 5.63 µM
EC50 (MDA-MB-231 (KRAS G13D); [3]): 5.6 µM
EC50 (BxPC-3 (WT)): 13.1 µM
EC50 (HT1080 (NRAS Q61K); [2]): 5.17 µM
EC50 (HT1080 (NRAS Q61K); Table 8, 384-well, alamar blue): 5.2 µM
EC50 (MIA Paca-2 (KRAS G12C); [2]): 8.45 µM
EC50 (MIA Paca-2 (KRAS G12C); Table 8, 384-well, alamar blue): 8.5 µM
EC50 (Panc-1 (KRAS G12D); [2]): 5.96 µM
EC50 (Panc-1 (KRAS G12D); Table 8, 384-well, alamar blue): 6 µM
EC50 (U2OS (WT)): 12.3 µM
Kd (GppNHp-loaded KRASG12D): 73 µM
fluorescence of caspase 3/7 substrate [1, 4]: Increased fluorescence

NC1(C(=O)NCCCn2cc(-c3ccc(OC(F)(F)F)cc3)c3cc(CN4CCN(Cc5c(Cl)cccc5Cl)CC4)ccc32)CCNCC1 [Compound 31MEW44, 4-amino-N-(3-(5-((4-(2,6-dichlorobenzyl)piperazin-1-yl)methyl)-3-(4-(trifluoromethoxy)phenyl)-1H-indol-1-yl)propyl)piperidine-4-carboxamide]
EC50 (Calu-1 (KRAS G12C); [2]): 3.6 µM
EC50 (Calu-1 (KRAS G12C); Table 8, 384-well, alamar blue): 3.6 µM
EC50 (SW480 (KRAS G12V); [2]): 2.18 µM
EC50 (SW480 (KRAS G12V); Table 8, 384-well, alamar blue): 2.2 µM
EC50 (BJeLR (HRAS G12V); [2]): 3.95 µM
EC50 (BJeLR (HRAS G12V); Table 8, 384-well, alamar blue): 4 µM
EC50 (HPAFII (KRAS G12D); [2]): 6.02 µM
EC50 (HPAFII (KRAS G12D); Table 8, 384-well, alamar blue): 5.2 µM
EC50 (MDA-MB-231 (KRAS G13D); [2]): 2.26 µM
EC50 (MDA-MB-231 (KRAS G13D); [3]): 2.3 µM
EC50 (BxPC-3 (WT)): 5.29 µM
EC50 (HT1080 (NRAS Q61K); [2]): 2.47 µM
EC50 (HT1080 (NRAS Q61K); Table 8, 384-well, alamar blue): 1.1 µM
EC50 (MIA Paca-2 (KRAS G12C); [2]): 2.81 µM
EC50 (MIA Paca-2 (KRAS G12C); Table 8, 384-well, alamar blue): 3.2 µM
EC50 (Panc-1 (KRAS G12D); [2]): 2.06 µM
EC50 (Panc-1 (KRAS G12D); Table 8, 384-well, alamar blue): 5.1 µM
EC50 (U2OS (WT)): 5.03 µM
Kd (GppNHp-loaded KRASG12D; MST, GppNHp-loaded KRAS^G12D, 34MEW43 and 34MEW95 estimated, no full dose-response curve): 9 µM
fluorescence of caspase 3/7 substrate [1, 4]: Increased fluorescence
fluorescence of caspase 3/7 substrate ([1]; 31MEW44 2.5 and 5 μM): Increased fluorescence
